Test results taken from PubChem BioAssay (NCI).
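Growth conditions: 96-well plates. Treatment: test compound, 48 hours, 5 concentrations. Analysis: linear interpolation between bracketing concentrations; unreached endpoints set to highest concentration. Definition used: TGI = concentration required for complete inhibition of growth.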

Columns and labels:
Assay in all cases: NCI-60 cell line screen, 48 h
[1] = system: 786-0 renal
[2] = system: A498 renal
[3] = system: A549 NSCLC
[4] = system: ACHN renal
[5] = system: BT-549 breast
[6] = system: CAKI-1 renal
[7] = system: CCRF-CEM leukemia
[8] = system: COLO 205 colon
[9] = system: DU-145 prostate
[10] = system: EKVX NSCLC
[11] = system: HCC-2998 colon
[12] = system: HCT-116 colon
[13] = system: HCT-15 colon
[14] = system: HL-60(TB) leukemia
[15] = system: HOP-62 NSCLC
[16] = system: HOP-92 NSCLC
[17] = system: HS 578T breast
[18] = system: HT29 colon
[19] = system: IGROV1 ovarian
[20] = system: K-562 leukemia
[21] = system: KM12 colon
[22] = system: LOX IMVI melanoma
[23] = system: M14 melanoma
[24] = system: MALME-3M melanoma
[25] = system: MCF7 breast
[26] = system: MDA-MB-231 breast
[27] = system: MDA-MB-435
[28] = system: MDA-N
[29] = system: MOLT-4 leukemia
[30] = system: NCI-H226 lung
[31] = system: NCI-H23 lung
[32] = system: NCI-H460 lung
[33] = system: NCI-H522 lung
[34] = system: NCI/ADR-RES ovarian
[35] = system: OVCAR-3 ovarian
[36] = system: OVCAR-4 ovarian
[37] = system: OVCAR-5 ovarian
[38] = system: OVCAR-8 ovarian
[39] = system: PC-3 prostate
[40] = system: RPMI-8226 leukemia
[41] = system: RXF 393 renal
[42] = system: SF-268 CNS
[43] = system: SF-295 CNS
[44] = system: SF-539 CNS
[45] = system: SK-MEL-2 melanoma
[46] = system: SK-MEL-28 melanoma
[47] = system: SK-MEL-5 melanoma
[48] = system: SK-OV-3 ovarian
[49] = system: SN12C renal
[50] = system: SNB-19 CNS
[51] = system: SNB-75 CNS
[52] = system: SW-620 colon
[53] = system: T-47D breast
[54] = system: TK-10 renal
[55] = system: U251 CNS
[56] = system: UACC-257 melanoma
[57] = system: UACC-62 melanoma
[58] = system: UO-31 renal

COC(=O)C1=C(OC(=O)/C(=C/c2ccccc2)c2ccc([N+](=O)[O-])cc2)C(C(=O)OC)[C@@]2(O)[C@@H](C(=O)OC)[C@H](C)C[C@@H]1[C@@H]2C(=O)OC (stereo partly specified)
TGI [1]: > 100 µM
TGI [2]: > 100 µM
TGI [3]: > 100 µM
TGI [4]: > 100 µM
TGI [5]: > 100 µM
TGI [6]: > 100 µM
TGI [7]: > 100 µM
TGI [8]: > 100 µM
TGI [9]: > 100 µM
TGI [10]: > 100 µM
TGI [11]: > 100 µM
TGI [12]: > 100 µM
TGI [13]: > 100 µM
TGI [14]: > 100 µM
TGI [15]: > 100 µM
TGI [16]: > 100 µM
TGI [17]: > 100 µM
TGI [18]: > 100 µM
TGI [19]: > 100 µM
TGI [20]: > 100 µM
TGI [21]: > 100 µM
TGI [22]: > 100 µM
TGI [23]: > 100 µM
TGI [24]: > 100 µM
TGI [25]: > 100 µM
TGI [26]: > 100 µM
TGI [27]: > 100 µM
TGI [28]: > 100 µM
TGI [29]: > 100 µM
TGI [30]: > 100 µM
TGI [31]: > 100 µM
TGI [32]: > 100 µM
TGI [33]: > 100 µM
TGI [34]: > 100 µM
TGI [35]: > 100 µM
TGI [36]: > 100 µM
TGI [37]: > 100 µM
TGI [38]: > 100 µM
TGI [39]: > 100 µM
TGI [40]: > 100 µM
TGI [41]: > 100 µM
TGI [42]: > 100 µM
TGI [43]: > 100 µM
TGI [44]: > 100 µM
TGI [45]: > 100 µM
TGI [46]: > 100 µM
TGI [47]: > 100 µM
TGI [48]: > 100 µM
TGI [49]: > 100 µM
TGI [50]: > 100 µM
TGI [51]: > 100 µM
TGI [52]: > 100 µM
TGI [53]: > 100 µM
TGI [54]: > 100 µM
TGI [55]: > 100 µM
TGI [56]: > 100 µM
TGI [57]: > 100 µM
TGI [58]: > 100 µM

O=C1C(Cl)=C(Cl)C(Cl)(Cl)C(Cl)C1(Cl)Cl (stereo unspecified)
TGI [1]: > 100 µM
TGI [2]: 29.8 µM
TGI [3]: 51.3 µM
TGI [4]: > 100 µM
TGI [5]: 54.1 µM
TGI [7]: 82.7 µM
TGI [8]: 41.2 µM
TGI [9]: > 100 µM
TGI [10]: 50.9 µM
TGI [11]: 34.9 µM
TGI [12]: 42.9 µM
TGI [13]: 98.8 µM
TGI [14]: 58.4 µM
TGI [15]: 76.2 µM
TGI [16]: 59.8 µM
TGI [17]: 64.9 µM
TGI [18]: 71.5 µM
TGI [19]: 33.2 µM
TGI [20]: > 100 µM
TGI [21]: 50.6 µM
TGI [22]: 41.6 µM
TGI [23]: 90.8 µM
TGI [24]: 49.5 µM
TGI [25]: 55 µM
TGI [26]: 44.6 µM
TGI [27]: 59.2 µM
TGI [28]: 66.2 µM
TGI [31]: 52.9 µM
TGI [32]: 47.4 µM
TGI [33]: 32.5 µM
TGI [34]: 64 µM
TGI [35]: 47.4 µM
TGI [37]: 58 µM
TGI [38]: > 100 µM
TGI [39]: 77.1 µM
TGI [40]: 70.4 µM
TGI [41]: 44.5 µM
TGI [42]: 51.3 µM
TGI [43]: 50.8 µM
TGI [44]: 32.8 µM
TGI [45]: 34.3 µM
TGI [46]: 62.1 µM
TGI [47]: 27.6 µM
TGI [48]: 74.1 µM
TGI [49]: 50.6 µM
TGI [50]: 61 µM
TGI [51]: 58.6 µM
TGI [52]: 54.7 µM
TGI [53]: 75.9 µM
TGI [54]: 65.3 µM
TGI [55]: 44.6 µM
TGI [56]: 44.8 µM
TGI [57]: 32.9 µM
TGI [58]: 32.7 µM

COc1ccc2nccc(/C=C/c3ccc(N(C)C)cc3)c2c1
TGI [1]: > 10 µM
TGI [2]: > 10 µM
TGI [3]: > 10 µM
TGI [4]: > 10 µM
TGI [5]: > 10 µM
TGI [6]: > 10 µM
TGI [7]: > 10 µM
TGI [8]: > 10 µM
TGI [9]: > 10 µM
TGI [10]: > 10 µM
TGI [11]: > 10 µM
TGI [12]: > 10 µM
TGI [13]: > 10 µM
TGI [14]: > 10 µM
TGI [15]: > 10 µM
TGI [16]: > 10 µM
TGI [17]: > 10 µM
TGI [18]: > 10 µM
TGI [19]: > 10 µM
TGI [20]: > 10 µM
TGI [21]: > 10 µM
TGI [22]: > 10 µM
TGI [23]: > 10 µM
TGI [24]: > 10 µM
TGI [25]: > 10 µM
TGI [26]: > 10 µM
TGI [27]: 7.49 µM
TGI [28]: > 10 µM
TGI [29]: > 10 µM
TGI [30]: > 10 µM
TGI [31]: > 10 µM
TGI [32]: > 10 µM
TGI [33]: > 10 µM
TGI [34]: > 10 µM
TGI [35]: > 10 µM
TGI [36]: > 10 µM
TGI [37]: > 10 µM
TGI [38]: > 10 µM
TGI [39]: > 10 µM
TGI [40]: > 10 µM
TGI [41]: > 10 µM
TGI [42]: > 10 µM
TGI [43]: > 10 µM
TGI [44]: > 10 µM
TGI [45]: > 10 µM
TGI [46]: > 10 µM
TGI [47]: > 10 µM
TGI [48]: > 10 µM
TGI [49]: > 10 µM
TGI [50]: > 10 µM
TGI [51]: > 10 µM
TGI [52]: > 10 µM
TGI [53]: > 10 µM
TGI [54]: > 10 µM
TGI [55]: > 10 µM
TGI [56]: > 10 µM
TGI [57]: > 10 µM
TGI [58]: > 10 µM

O=c1c(-c2ccccc2)c(SCCN2CCCC2)n(-c2ccccc2)c(=S)n1-c1ccccc1
TGI [1]: > 100 µM
TGI [2]: > 100 µM
TGI [3]: > 100 µM
TGI [4]: > 100 µM
TGI [5]: > 100 µM
TGI [6]: > 100 µM
TGI [7]: > 100 µM
TGI [8]: > 100 µM
TGI [9]: > 100 µM
TGI [10]: > 100 µM
TGI [11]: > 100 µM
TGI [12]: > 100 µM
TGI [13]: > 100 µM
TGI [14]: > 100 µM
TGI [15]: > 100 µM
TGI [16]: > 100 µM
TGI [17]: > 100 µM
TGI [18]: > 100 µM
TGI [19]: > 100 µM
TGI [20]: > 100 µM
TGI [21]: > 100 µM
TGI [22]: > 100 µM
TGI [23]: > 100 µM
TGI [24]: > 100 µM
TGI [25]: > 100 µM
TGI [26]: > 100 µM
TGI [27]: > 100 µM
TGI [28]: > 100 µM
TGI [29]: > 100 µM
TGI [30]: > 100 µM
TGI [31]: > 100 µM
TGI [32]: > 100 µM
TGI [33]: > 100 µM
TGI [34]: > 100 µM
TGI [36]: > 100 µM
TGI [37]: > 100 µM
TGI [38]: > 100 µM
TGI [39]: > 100 µM
TGI [40]: > 100 µM
TGI [41]: > 100 µM
TGI [42]: > 100 µM
TGI [43]: > 100 µM
TGI [44]: > 100 µM
TGI [45]: > 100 µM
TGI [46]: > 100 µM
TGI [48]: > 100 µM
TGI [49]: > 100 µM
TGI [50]: > 100 µM
TGI [51]: > 100 µM
TGI [52]: > 100 µM
TGI [53]: > 100 µM
TGI [54]: > 100 µM
TGI [55]: > 100 µM
TGI [56]: > 100 µM
TGI [57]: > 100 µM

O=C(O)/C(=C/c1ccccc1)c1ccccc1
TGI [1]: > 100 µM
TGI [2]: > 100 µM
TGI [3]: > 100 µM
TGI [4]: > 100 µM
TGI [5]: > 100 µM
TGI [6]: > 100 µM
TGI [7]: > 100 µM
TGI [9]: > 100 µM
TGI [10]: > 100 µM
TGI [11]: > 100 µM
TGI [12]: > 100 µM
TGI [13]: > 100 µM
TGI [14]: > 100 µM
TGI [15]: > 100 µM
TGI [16]: > 100 µM
TGI [17]: > 100 µM
TGI [18]: > 100 µM
TGI [19]: > 100 µM
TGI [20]: > 100 µM
TGI [21]: > 100 µM
TGI [22]: > 100 µM
TGI [23]: > 100 µM
TGI [24]: > 100 µM
TGI [25]: > 100 µM
TGI [26]: > 100 µM
TGI [27]: > 100 µM
TGI [28]: > 100 µM
TGI [29]: > 100 µM
TGI [31]: > 100 µM
TGI [32]: > 100 µM
TGI [33]: > 100 µM
TGI [34]: > 100 µM
TGI [35]: > 100 µM
TGI [36]: > 100 µM
TGI [37]: > 100 µM
TGI [38]: > 100 µM
TGI [39]: > 100 µM
TGI [40]: > 100 µM
TGI [41]: > 100 µM
TGI [42]: > 100 µM
TGI [43]: > 100 µM
TGI [44]: > 100 µM
TGI [45]: > 100 µM
TGI [46]: > 100 µM
TGI [47]: > 100 µM
TGI [48]: > 100 µM
TGI [49]: > 100 µM
TGI [50]: > 100 µM
TGI [51]: > 100 µM
TGI [52]: > 100 µM
TGI [53]: > 100 µM
TGI [54]: > 100 µM
TGI [55]: > 100 µM
TGI [56]: > 100 µM
TGI [57]: > 100 µM
TGI [58]: > 100 µM
